Assay results taken from patent US9132118B2, “Taxane analogs for the treatment of brain cancer” (Tapestry Pharmaceuticals, Inc., priority 2007, dated 2015).
Entries after “also recorded” stand apart in the source; their conditions may differ. Where two headings read alike, the source gives them in different places.

Legend:
[1] = tested on: central nervous system; experiment: Central nervous system (CNS) safety study in rats; assay type: in vivo, rat
Procedure: This study was conducted at ClinTrials BioResearch (CTBR, Montreal, Quebec, Canada) as a GLP study.
Results: All animals were observed twice daily for signs of ill health or reaction to treatment, except on day of arrival and necropsy. A Functional Observation Battery
(FOB) assessment, along with grip strength, hind limb splay and body temperature measurements were performed for all animals once pre-dose and at approximately 15 minutes, 1 hour, 4 hours, 8 hours and 24 hours post-dose. After the last observation, all animals were euthanized without further examination.

[2] = tested on: human tumor xenografts; experiment: Efficacy of oral or iv S-(1) in mouse xenografts; assay type: in vivo, nude mice; details: human tumor xenografts in nude mice
Procedure: (§1) Summary of Experimental Protocol: Human neuroblastoma tumor cells were implanted via subcutaneous injection of 1-10×10^6 cells in nude mice. Tumors were allowed to grow to 200 mg+/−50 mg in size. Drug dosing was initiated, and tumor volume and body weight were recorded twice weekly.
(§2) The mean value for % body weight change and % tumor volume increase for each experimental group was plotted including error bars for the standard error of the mean.
(§3) Other metrics for assessing antitumor effects include: % T/C values as calculated by the following formula:
(§4) [formula] Log Kill=(T−C)/3.32×(Td)

[3] = Efficacy of oral or iv S-(1) in mouse xenografts; assay type: in vivo, nude mice; details: mouse, in vivo, po; nude mice; from efficacy studies and MTD studies; read-out: apparent oral bioavailability
Procedure: as §1, §2, §3, §4

[4] = Phase 1 Study S-(1)-02, i.v. every 21 days, safety and pharmacokinetics; assay type: in vivo, patients; details: for AUC0-24 / Cl / Vss / t1/2: Study S-(1)-02 (15:85 Cremophor EL-P/ethanol), i.v., first dose; for half-life: human, plasma, intravenous
Procedure: treatment cycles are repeated every 28 days in patients who remain eligible for continued treatment. Study S-(1)-O1 is currently being conducted in the United States. […] Study S-(I)-02 is currently being conducted in the United States and in Israel.
Plasma pharmacokinetics of S-(1) were assessed following the first dose of S-(1) in both studies. Plasma samples were analyzed for S-(1) using a validated LC/MS-MS method.
Treatment cohorts were expanded to 6 pts in the face of dose-limiting toxicity (DLT); pts could remain on study until the development of progressive disease or an intolerable adverse event. DLT was defined as Gr 4 heme toxicity lasting 7 days; febrile neutropenia, Gr 3 thrombocytopenia with bleeding, Gr 3 elevation of transaminases lasting 7 days or any other Gr ¾ toxicity other than nausea or vomiting.

[5] = S-(1) pharmacokinetics in mouse, plasma and brain levels after single IV bolus; assay type: in vivo, mice; details: single IV 20 mg/kg; for AUC (0-t) / AUC (0-∞) / Cmax / MRT (expo): male CD-1 mice
Procedure: S-(I) was formulated in 7% Ethanol: 3% Cremophor EL: 90% D5W (5% Dextrose in water). The formulated drug was administered as a single IV bolus via tail vein injection. The details are set out below:
Sample Collection timing: Terminal blood (plasma) and brain specimens were collected at 9 times post-dose, with 4 mice per sample time. Sample collection times:
Blood collection: A terminal blood sample was collected from each mouse via cardiac puncture. The whole blood was collected on wet ice, spun down immediately (at 4° C.), and plasma stored frozen at −20° C. until analysis. The anticoagulant used was K2EDTA. Brain Sample Collection: Whole brains were removed by dissection. Brains were collected on wet ice, weighed, and stored at −20° C.

[6] = tested on: human U251 (glioblastoma) CNS tumor cells; details: for median day of death and median survival time: iv, 240 h
From the text: Tumor Model: Each animal was implanted with one million U251 human CNS tumor cells from an in vitro cell line by ic injection with a 25 gauge needle. The day of tumor implantation (May 24, 2006) was designated as day 0. A sufficient number of mice were implanted so that animals with body weights in a range as narrow as possible were selected for the trial on the day of treatment initiation (day 1 after tumor implantation). Animals were randomly assigned to the treatment groups and individually identified by earmark codes.
A portion of this solution was then diluted with the complete vehicle to achieve the lower dosing concentration of 1.2 mg/mL. […] Temozolomide (Temodar, Schering Corporation) was prepared on each day of injection in Klucel+tween 80 at a concentration of 4 mg/mL. Temozolomide was administered within 5 minutes of formulation on the basis of exact body weight using a volume of 0.2 mL/10 g of body weight.
Data Collection: Animal health surveillance was conducted and mortality data were collected daily. The animals were weighed twice weekly starting with the first day of treatment.
Study Duration: The study was terminated 100 days after tumor implantation. Any animal found moribund or whose body weight dropped below 14 g was euthanized prior to study termination.
Parameters Evaluated: Number of 100-day survivors, median day of death, and the increase in lifespan based on median day of death and expressed as a percentage (% ILS), median survival time and the % ILS based on median survival time.
Administration of the Ringer's solution was initiated when animal body weights dropped by greater than 10% and continued until the animal recovered, died, or was euthanized.

**Q.** With `C=C[C@H]1O[C@H]2CC3OC[C@@]3(OC(C)=O)[C@H]3[C@H](OC(=O)c4ccccc4)[C@]4(C(C)(C)O)C[C@H](OC(=O)[C@H](O)[C@H](CC(C)C)NC(=O)OC(C)(C)C)C(C)=C4[C@H](OC(C)=O)[C@H](O1)[C@]23C` (stereo partly drawn) [S-(1)] as the molecule, how does the “biological effect on central nervous system (functional observational battery, grip strength, hind limb splay, body temperature)” value ([1]; single intravenous 6.25, 12.5 or 25 mg/kg, male Sprague Dawley rats, 15 minutes, 1, 4, 8 and 24 hours post-dose) read?
**A.** The value was “no biological effects”.

**Q.** What about the “deaths or treatment-related clinical signs” value ([1]; single intravenous 6.25, 12.5 or 25 mg/kg, male rats) of the same molecule?
**A.** The value was “no deaths or treatment-related clinical signs”.

**Q.** What about the “no adverse effect level” value ([1]; single intravenous dose, male Sprague Dawley rats) of the same molecule?
**A.** The value was 25 mg/kg.

**Q.** And the “efficacy / antitumor activity in mouse xenografts (in words)” value [2]?
**A.** Its value is “demonstrated antitumor activity against multiple human tumor xenografts in nude mice, including xenografts that expressed mdr-1 and that were resistant to other taxanes; also recorded: suppressed the growth of multiple human tumor xenografts in nude mice, including xenografts that expressed mdr-1 and that were resistant to other taxanes; also recorded: shows efficacy”.

**Q.** What about the bioavailability [3] of the same molecule?
**A.** Its bioavailability is 70 to 80%.

**Q.** And the AUC0-24 ([4]; 56 mg/m^2, plasma)?
**A.** The AUC0-24 was 2530 ± 847 ng·h/mL.

**Q.** And the Cl ([4]; 56 mg/m^2, plasma)?
**A.** The Cl was 18.9 ± 9.53 L/hr/m^2.

**Q.** And the Vss ([4]; 56 mg/m^2, plasma)?
**A.** Its Vss is 232 ± 93.6 L/m^2.

**Q.** And the t1/2 ([4]; 56 mg/m^2, plasma)?
**A.** The t1/2 was 8.96 ± 7.09 h.

**Q.** What about the AUC0-24 ([4]; 84 mg/m^2, plasma) of the same molecule?
**A.** The AUC0-24 was 3710 ng·h/mL.

**Q.** What about the Cl ([4]; 84 mg/m^2, plasma) of the same molecule?
**A.** Its Cl is 15.4 L/hr/m^2.

**Q.** And the Vss ([4]; 84 mg/m^2, plasma)?
**A.** Its Vss is 300 L/m^2.

**Q.** What about the AUC0-24 ([4]; 126 mg/m^2, plasma) of the same molecule?
**A.** The AUC0-24 was 6110 ± 3030 ng·h/mL.

**Q.** What about the Cl ([4]; 126 mg/m^2, plasma) of the same molecule?
**A.** The Cl was 22.1 ± 11.2 L/hr/m^2.

**Q.** What about the Vss ([4]; 126 mg/m^2, plasma) of the same molecule?
**A.** Its Vss is 166 ± 105 L/m^2.

**Q.** And the t1/2 ([4]; 126 mg/m^2, plasma)?
**A.** The t1/2 was 6.27 ± 3.64 h.

**Q.** What about the AUC0-24 ([4]; 185 mg/m^2, plasma) of the same molecule?
**A.** Its AUC0-24 is 7260 ± 2620 ng·h/mL.

**Q.** What about the Cl ([4]; 185 mg/m^2, plasma) of the same molecule?
**A.** The Cl was 24.7 ± 12.2 L/hr/m^2.

**Q.** What about the Vss ([4]; 185 mg/m^2, plasma) of the same molecule?
**A.** Its Vss is 215 ± 116 L/m^2.

**Q.** What about the t1/2 ([4]; 185 mg/m^2, plasma) of the same molecule?
**A.** The t1/2 was 3.43 ± 7.31 h.

**Q.** And the dose limiting toxicity ([4]; Study S-(1)-02, i.v. every 21 days, 185 mg/m^2 (2 patients))?
**A.** Its dose limiting toxicity is “Grade 3 sensory neuropathy; also recorded: Gr 3 peripheral sensory neuropathy”.

**Q.** And the “dose that can be safely administered” value ([4]; every 21 days in heavily pre-treated patients)?
**A.** The value was 160 mg/m^2.

**Q.** What about the “patients who experienced Gr 4 neutropenia” value ([4]; every 21 days, 14 patients) of the same molecule?
**A.** Its value is 1 pt.

**Q.** And the “drug related adverse events” value ([4]; every 21 days, 56-185 mg/m^2, 14 patients)?
**A.** Its value is “mucositis, vomiting, diarrhea, neutropenia, thrombocytopenia, myalgias and peripheral neuropathy”.

**Q.** And the dose limiting toxicity ([4]; every 21 days, dose of 160 mg/m^2)?
**A.** Its dose limiting toxicity is “no DLT was observed”.

**Q.** And the “dose dependence of AUC (in words)” value ([4]; every-21-days study)?
**A.** The value was “generally dose linear”.

**Q.** And the clearance ([4]; every-21-days study summary, dose of 126 mg/m^2)?
**A.** Its clearance is 24.7±12.2 L/hr/m^2.

**Q.** What about the tumor response ([4]; every-21-days study, patients with advanced cancer) of the same molecule?
**A.** The tumor response was 1 pt with pancreatic cancer had a confirmed response.

**Q.** What about the half-life ([4]; 126 mg/m2, every-21-days study summary, dose of 126 mg/m^2, read-out: t1/2 (converted)) of the same molecule?
**A.** The half-life was 10.6 h.

**Q.** And the half-life ([4]; Study S-(1)-02, after first dose, read-out: Plasma t1/2, range over dose groups)?
**A.** The half-life was 3.43 to 8.96 h.

**Q.** What about the “AUC (0-t)” value ([5]; Brain) of the same molecule?
**A.** The value was 64984.9 ng·h/mL.

**Q.** And the “AUC (0-∞)” value ([5]; Brain)?
**A.** Its value is 88742.9 ng·h/mL.

**Q.** And the Cmax ([5]; Brain)?
**A.** Its Cmax is 3726.6 ng/mL.

**Q.** What about the “MRT (expo)” value ([5]; Brain) of the same molecule?
**A.** The value was 42.5 h.

**Q.** What about the “AUC (0-t)” value ([5]; Plasma) of the same molecule?
**A.** The value was 16870.2 ng·h/mL.

**Q.** What about the “AUC (0-∞)” value ([5]; Plasma) of the same molecule?
**A.** Its value is 16951.2 ng·h/mL.

**Q.** And the Cmax ([5]; Plasma)?
**A.** Its Cmax is 1550.2 ng/mL.

**Q.** What about the “MRT (expo)” value ([5]; Plasma) of the same molecule?
**A.** The value was 17.6 h.

**Q.** What about the “passage of the blood-brain barrier (in words)” value ([5]; mouse model) of the same molecule?
**A.** Its value is “not impeded by the blood-brain barrier”.

**Q.** What about the “median day of death and median survival time” value ([6]; 12 mg/kg) of the same molecule?
**A.** The value was 14.5 days.

**Q.** And the “median day of death and median survival time” value ([6]; 20 mg/kg)?
**A.** Its value is 16 days.

**Q.** What about the “effect against the U251 human CNS tumor cells (in words)” value ([6]; monotherapy or combination treatment, intracranial xenograft) of the same molecule?
**A.** The value was “moderate effect”.
